Consider 9 compounds from PubChem BioAssay AID1918932 (Molecular Pharmacology Branch, DTP, NCI, 2023).

“And” between values parts separate entries of the source, which are not always exact repeats. Equal entries are not always repeated. Where only a bound is given, the exact number is not on record here.

This assay deals with 171881-019-R-J1-PDC complex spheroid viability. Nature of the assay: Anticancer human tumor 171881-019-R-J1-PDC patient-derived invasive breast carcinoma cell line growth inhibition. The following applies: for viability, T/C: stronger effect = lower value. An outline of the steps:
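Drug combinations with the LSD1 inhibitor iadademstat tested on tumor cells co-cultured as spheroids with endothelial cells and mesenchymal stem cells. Concentrations descended in half-log increments from clinical Cmax or 10 microM.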

Where [1] appears, read: curve of first compound, second compound 0.1 µM.
[2] abbreviates: curve of first compound, second compound 0.316 µM.
Where [3] appears, read: curve of first compound, second compound 1 µM.
The mark [4] stands for this setting: curve of first compound, second compound 3.16 µM.
Where [5] appears, read: curve of first compound, second compound 10 µM.
Setting [6] is: second compound 0.1 µM, first compound 0.00316 µM.
[7] abbreviates: second compound 0.1 µM, first compound 0.01 µM.
[8] abbreviates: second compound 0.1 µM, first compound 0.0316 µM.
The mark [9] stands for this setting: second compound 0.1 µM, first compound 0.1 µM.
Where [10] appears, read: second compound 0.1 µM, first compound 0.316 µM.
Where [11] appears, read: second compound 0.1 µM, first compound 1 µM.
The mark [12] stands for this setting: second compound 0.316 µM, first compound 0.00316 µM.
The mark [13] stands for this setting: second compound 0.316 µM, first compound 0.01 µM.
Setting [14] is: second compound 0.316 µM, first compound 0.0316 µM.
Setting [15] is: second compound 0.316 µM, first compound 0.1 µM.
Where [16] appears, read: second compound 0.316 µM, first compound 0.316 µM.
The mark [17] stands for this setting: second compound 0.316 µM, first compound 1 µM.
Where [18] appears, read: second compound 1 µM, first compound 0.00316 µM.
[19] abbreviates: second compound 1 µM, first compound 0.01 µM.
Setting [20] is: second compound 1 µM, first compound 0.0316 µM.
Where [21] appears, read: second compound 1 µM, first compound 0.1 µM.
Setting [22] is: second compound 1 µM, first compound 0.316 µM.
Setting [23] is: second compound 1 µM, first compound 1 µM.
[24] abbreviates: second compound 3.16 µM, first compound 0.00316 µM.
[25] abbreviates: second compound 3.16 µM, first compound 0.01 µM.
Setting [26] is: second compound 3.16 µM, first compound 0.0316 µM.
[27] abbreviates: second compound 3.16 µM, first compound 0.1 µM.
The mark [28] stands for this setting: second compound 3.16 µM, first compound 0.316 µM.
Where [29] appears, read: second compound 3.16 µM, first compound 1 µM.
[30] abbreviates: second compound 10 µM, first compound 0.00316 µM.
Where [31] appears, read: second compound 10 µM, first compound 0.01 µM.
[32] abbreviates: second compound 10 µM, first compound 0.0316 µM.
[33] abbreviates: second compound 10 µM, first compound 0.1 µM.
The mark [34] stands for this setting: second compound 10 µM, first compound 0.316 µM.
Where [35] appears, read: second compound 10 µM, first compound 1 µM.
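Further: spheroids exposed to agents for 7 days after 3 days growth.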

Turning to `COc1cc(Nc2ncc3c(n2)-c2ccc(Cl)cc2C(c2c(F)cccc2OC)=NC3)ccc1C(=O)O` + NC1CC1c1ccc(-c2cccc(O)c2)cc1, the IC50 (as a rule, the concentration that inhibits the measured activity by half) was determined as 442 nM under setting [1]; 506 nM under setting [2]; 517 nM under setting [3]; 380 nM under setting [4]; 301 nM under setting [5]. The viability, T/C – broadly, the result in the treated group divided by that in the control group, in per cent – was 59.8% under setting [6]; 67.3% under setting [7]; 64.1% under setting [8]; 62.7% under setting [9]; 58.5% under setting [10]; 29.4% under setting [11]. Besides, the viability, T/C was 60.5% under setting [12]; 68.1% under setting [13]; 68% under setting [14]; 65.7% under setting [15]; 61.9% under setting [16]; 32.6% under setting [17]. Moreover, the viability, T/C is 67.2% under setting [18]; 70% under setting [19]; 68.7% under setting [20]; 69.2% under setting [21]; 63.2% under setting [22]; 31.9% under setting [23]. Besides, the viability, T/C reads like this: under setting [24], 71.3%; under setting [25], 75.5%; under setting [26], 72.5%; under setting [27], 69.1%; under setting [28], 54.7%; under setting [29], 25.4%. The viability, T/C reads like this: under setting [30], 59.4%; under setting [31], 61%; under setting [32], 64.1%; under setting [33], 56.9%; under setting [34], 49.9%; under setting [35], 25.3%.

As to `Nc1ccccc1NC(=O)c1ccc(CNC(=O)OCc2cccnc2)cc1`, the viability, T/C runs as follows: (compound 0.00949 µM) 96.1% and 95.3%; (compound 0.03 µM) 102% and 98.5%; (compound 0.0949 µM) 135% and 108%; (compound 0.3 µM) 45.6% and 92.6%; (compound 0.949 µM) 2.72% and 9.58%; (compound 3 µM) 0.41% and 0.94%. Further, under “curve of compound”, the IC50 was 278 nM and 542 nM.

For the compound `O=C(c1cc(Cc2n[nH]c(=O)c3ccccc23)ccc1F)N1CCN(C(=O)C2CC2)CC1`, the viability, T/C is 90.8% and 96.5% (compound 0.0316 µM); 94.5% and 103% (compound 0.1 µM); 83.5% and 95.9% (compound 0.316 µM); 91.6% and 83% (compound 1 µM); 82.8% and 50.5% (compound 3.16 µM); 101% and 21.5% (compound 10 µM). Where the note is “curve of compound”, the IC50 was > 10000 nM and 3200 nM.

With `CC(C)CC(NC(=O)CNC(=O)c1cc(Cl)ccc1Cl)B1OC(=O)CC(CC(=O)O)(C(=O)O)O1` (stereo not given), the viability, T/C is 91.2% and 75.3% (compound 0.000316 µM); 105% and 52.1% (compound 0.001 µM); 48% and 33.7% (compound 0.00316 µM); 12.6% and 17.4% (compound 0.01 µM); 3.28% and 13.3% (compound 0.0316 µM); 0.97% and 15.7% (compound 0.1 µM). Besides, the IC50 (curve of compound) was 3.02 nM and 1.19 nM.

Take `NS(=O)(=O)OCC1CC(n2ccc3c(NC4CCc5ccccc54)ncnc32)CC1O` (stereo not given): the viability, T/C runs as follows: (compound 0.00949 µM) 101% and 40.4%; (compound 0.03 µM) 44.4% and 34.8%; (compound 0.0949 µM) 25.8% and 27.8%; (compound 0.3 µM) 24.2% and 25.3%; (compound 0.949 µM) 25.5% and 29.9%; (compound 3 µM) 22.4% and 21.6%. Further, the IC50 (curve of compound) was 26.9 nM and < 9.49 nM.

`O=C(C=Cn1cnc(-c2cc(C(F)(F)F)cc(C(F)(F)F)c2)n1)NNc1cnccn1` + NC1CC1c1ccc(-c2cccc(O)c2)cc1: the IC50 was less than 3.16 nM under setting [1]; less than 3.16 nM under setting [2]; less than 3.16 nM under setting [3]; less than 3.16 nM under setting [4]; less than 3.16 nM under setting [5]. The viability, T/C was 19.1% under setting [6]; 13% under setting [7]; 4.97% under setting [8]; 2.14% under setting [9]; 2.1% under setting [10]; 1.99% under setting [11]. In addition, the viability, T/C runs as follows: under setting [12], 21.3%; under setting [13], 14.4%; under setting [14], 5.36%; under setting [15], 2.27%; under setting [16], 2.08%; under setting [17], 1.91%. The viability, T/C runs as follows: under setting [18], 23.4%; under setting [19], 16.1%; under setting [20], 9.98%; under setting [21], 2.64%; under setting [22], 2.11%; under setting [23], 1.82%. For the same compound, the viability, T/C was 25.9% under setting [24]; 17.5% under setting [25]; 5.43% under setting [26]; 2.42% under setting [27]; 2.5% under setting [28]; 2.17% under setting [29]. Moreover, the viability, T/C was 25% under setting [30]; 16.5% under setting [31]; 6.08% under setting [32]; 11.4% under setting [33]; 6.91% under setting [34]; 3.16% under setting [35].

For the compound `Nc1ncn(C2CC(O)C(CO)O2)c(=O)n1` (stereo not given) + NC1CCC(NC2CC2c2ccccc2)CC1, the IC50 is, setting by setting: under setting [1], more than 1000 nM; under setting [2], more than 1000 nM; under setting [3], more than 1000 nM; under setting [4], more than 1000 nM; under setting [5], more than 1000 nM. Also, the viability, T/C by setting is: under setting [6], 88.4%; under setting [7], 93.3%; under setting [8], 93.1%; under setting [9], 115%; under setting [10], 111%; under setting [11], 101%. Moreover, the viability, T/C under setting [12] was 96%; the viability, T/C under setting [13] is 81.7%; the viability, T/C under setting [14] is 92.9%; the viability, T/C under setting [15] is 122%; the viability, T/C under setting [16] was 115%; the viability, T/C under setting [17] was 94.2%. Further, the viability, T/C is, setting by setting: under setting [18], 94.9%; under setting [19], 81.1%; under setting [20], 95.6%; under setting [21], 123%; under setting [22], 117%; under setting [23], 97.1%. For the same compound, the viability, T/C is 82.5% under setting [24]; 92.9% under setting [25]; 106% under setting [26]; 122% under setting [27]; 114% under setting [28]; 97.7% under setting [29]. Besides, the viability, T/C is 86.1% under setting [30]; 105% under setting [31]; 112% under setting [32]; 102% under setting [33]; 111% under setting [34]; 99.8% under setting [35].

For the compound `O=C(C=Cn1cnc(-c2cc(C(F)(F)F)cc(C(F)(F)F)c2)n1)NNc1cnccn1` + NC1CCC(NC2CC2c2ccccc2)CC1, the IC50 under setting [1] was less than 3.16 nM; the IC50 under setting [2] is less than 3.16 nM; the IC50 under setting [3] was less than 3.16 nM; the 50% inhibitory concentration (IC50) under setting [4] is less than 3.16 nM; the IC50 under setting [5] was less than 3.16 nM. Further, the viability, T/C by setting is: under setting [6], 20%; under setting [7], 14.8%; under setting [8], 5.39%; under setting [9], 2.15%; under setting [10], 2.24%; under setting [11], 2.08%. The viability, T/C under setting [12] was 20.9%; the viability, T/C under setting [13] was 14.6%; the viability, T/C under setting [14] is 6.07%; the viability, T/C under setting [15] is 2.35%; the viability, T/C under setting [16] is 6.21%; the viability, T/C under setting [17] was 2.25%. Further, the viability, T/C is 22.7% under setting [18]; 16.1% under setting [19]; 6.8% under setting [20]; 2.59% under setting [21]; 2.63% under setting [22]; 4.14% under setting [23]. For the same compound, the viability, T/C is, setting by setting: under setting [24], 24.3%; under setting [25], 16.4%; under setting [26], 6.64%; under setting [27], 2.73%; under setting [28], 2.91%; under setting [29], 2.78%. Further, the viability, T/C reads like this: under setting [30], 24.7%; under setting [31], 17.3%; under setting [32], 7.11%; under setting [33], 2.96%; under setting [34], 3.51%; under setting [35], 3.29%.

With `COc1cc(C2c3cc4c(cc3C(OC3OC5COC(C)OC5C(O)C3O)C3COC(=O)C23)OCO4)cc(OC)c1O` (stereo not given), the viability, T/C is, setting by setting: (compound 0.00949 µM) 97.7% and 100%; (compound 0.03 µM) 121% and 90%; (compound 0.0949 µM) 78.5% and 72.5%; (compound 0.3 µM) 51.8% and 64.3%; (compound 0.949 µM) 32.6% and 49.3%; (compound 3 µM) 17.2% and 29.7%. Moreover, where the note is “curve of compound”, the IC50 was 315 nM and 775 nM.
